Columns and labels:
CmFUM = target: T1, CmFUM (Cyanidioschyzon merolae, UniProt M1VAI8); experiment: A240 absorbance, Michaelis-Menten fit; assay type: biochemical; conditions: fumarate hydration; 100 mM Tris-HCl pH 7.5; 52 °C
T1 construct: gene CYME_CMD058C; N-terminal GST tag (pGEX6P-1, BamHI-XhoI) kept; codon-optimized synthetic gene; E. coli BL21(DE3); glutathione-Sepharose purified

TeFum [1] = target: T2, TeFum (Thermosynechococcus vestitus, UniProt Q8DIP7); experiment: A240 absorbance, Michaelis-Menten fit; assay type: biochemical; set-up: gene fumC; N-terminal GST tag (pGEX6P-1, BamHI-XhoI) kept; codon-optimized synthetic gene; E. coli BL21(DE3); glutathione-Sepharose purified; conditions: fumarate hydration; 100 mM Tris-HCl pH 7.0; 50 °C
TeFum [2] = target: T2, TeFum; experiment: relative activity with effector, A240 absorbance; set-up: gene fumC; conditions: activator in the fumarate direction; 0.14 mM fumarate, pH 7.0, 50 °C; sodium salt

T2 sequence (Q8DIP7 whole entry): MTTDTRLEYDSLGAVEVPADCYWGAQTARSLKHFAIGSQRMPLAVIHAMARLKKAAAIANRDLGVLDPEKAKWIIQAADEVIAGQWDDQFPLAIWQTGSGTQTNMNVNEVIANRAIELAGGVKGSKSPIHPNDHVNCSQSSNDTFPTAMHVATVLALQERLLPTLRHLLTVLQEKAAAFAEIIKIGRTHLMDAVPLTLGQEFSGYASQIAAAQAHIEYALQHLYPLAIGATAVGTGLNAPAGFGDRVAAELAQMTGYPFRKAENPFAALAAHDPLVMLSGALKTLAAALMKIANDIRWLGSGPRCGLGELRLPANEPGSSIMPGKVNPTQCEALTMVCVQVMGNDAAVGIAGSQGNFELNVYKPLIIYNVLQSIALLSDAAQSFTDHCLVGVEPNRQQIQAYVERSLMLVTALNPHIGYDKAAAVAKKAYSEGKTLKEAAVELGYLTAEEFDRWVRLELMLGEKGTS
T1 sequence (M1VAI8 1-553): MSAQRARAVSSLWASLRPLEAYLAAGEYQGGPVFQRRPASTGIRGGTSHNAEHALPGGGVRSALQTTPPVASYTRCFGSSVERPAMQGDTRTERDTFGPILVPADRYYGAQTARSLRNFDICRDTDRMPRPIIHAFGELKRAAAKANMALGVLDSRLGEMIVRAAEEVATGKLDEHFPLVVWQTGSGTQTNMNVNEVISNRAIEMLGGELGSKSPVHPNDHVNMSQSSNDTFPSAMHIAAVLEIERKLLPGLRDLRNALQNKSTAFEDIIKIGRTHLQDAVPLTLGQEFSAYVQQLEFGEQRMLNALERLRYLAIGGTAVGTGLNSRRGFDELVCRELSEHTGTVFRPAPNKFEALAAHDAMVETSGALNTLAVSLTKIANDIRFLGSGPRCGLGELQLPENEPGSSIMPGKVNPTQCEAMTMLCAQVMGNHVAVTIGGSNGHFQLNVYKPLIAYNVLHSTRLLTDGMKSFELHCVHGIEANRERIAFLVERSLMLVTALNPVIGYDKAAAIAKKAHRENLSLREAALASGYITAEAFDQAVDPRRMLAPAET

Compound: O=C(O)/C=C/C(=O)O [fumarate]
- Km (CmFUM): 270 ± 50 µM
- Km (TeFum [1]): 140 ± 20 µM

Compound: CC(=O)C(=O)O [pyruvate]
- relative activity (TeFum [2]): pyruvate increased the TeFum activity for fumarate (Figure 4B).
